Data set [1] deals with T1, interaction between Supt4h and NGN (subunit of Supt5h) (Homo sapiens, UniProt O00267+P63272).
T1 construct: expressed in transfected cells
Description: Split Gaussia luciferase complementation assay (M2-8 Luciferase). The class given is cell-based. Particulars: M2-8 cells. A digest of the protocol:
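HEK293-derived M2-8 cells inducibly express Supt4h-Gluc1 and NGN-Gluc2 fragments (stabilizing mutations) on RheoSwitch ligand addition; ligand plus compound added 24 h after plating and left 24 h. Cells frozen, lysed with 10 μg/ml native coelenterazine, 1 h room temperature dark; complemented luciferase luminescence read.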

The next data set deals with M2-8 cells. Briefly: M2-8 Cell viability Assay. It counts as cell-based. Particulars: at the concentration of 1000 nM.
Data set [2] relates to mutant HTT. Briefly: Mutant HTT assay in lymphoblastoid cells (LBC), Western blot. The conditions noted are these: read-out: LBC IC20 (nM) mHTT, 3 days compound treatment. The class given is cell-based, human. The essentials:
(§1)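 HD patient lymphoblastoid cells (GM14044, 250 CAG repeats in mutant allele) treated with compound for 3 days. Lysates normalised by BCA, run on SDS-PAGE and immunoblotted: mutant HTT with anti-polyQ MW1, wild-type HTT with anti-Huntingtin antibody, TBP and tubulin also probed. Band intensities quantified by infrared imaging.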
For orientation: A western blot detects proteins with antibodies after separation by electrophoresis.

For another data set, the system named is wild-type HTT. Description: Wild-type HTT assay in lymphoblastoid cells (LBC), Western blot. The conditions noted are these: 3 days compound treatment, read-out: LBC IC20 (nM) wtHTT. It counts as cell-based, human. The essentials:
as §1

Data set [3] has as its system mutant HTT. Description: Mutant HTT assay in induced pluripotent stem cells (iPSC). The class given is cell-based, human. The conditions noted are these: HD patient iPSCs, one day incubation, read-out: iPSC IC20 (nM) mHTT. As to the method: C. Mutant HTT Assay in Induced Pluripotent Stem Cells (iPSC) a. Cell Culturing and Compound Treatment
Huntington's disease patient iPSCs (ND50036 from NINDS) were detached into single cells by Accutase (25058CI from Corning), counted and plated on a 24-well plate coated with Matrigel (354277 from Corning) at density of 7,000 cells/well. After 48 hrs, compounds were added to the cell culture medium mTeSR1 (85850 from StemCell Technologies) and the cells were incubated for one day. The medium was then removed, and the cells were washed with PBS. After all liquid was removed, the plate was placed at −80° C. overnight. Lysis buffer [30 mM Tris-HCl (pH 8.0), 5 mM NaCl, 0.1% Triton X-100] with the complete proteinase inhibitor cocktail (5892791001 from Sigma-Aldrich) was then added to the cells. Cell samples were lysed on an orbital plate shaker at 4° C. at 700 rpm for 30 min. The supernatants from spinning (14 k rpm for 10 min) were collected. The protein concentrations were determined by BCA assay (23225 from Pierce, ThermoFisher). […]
b. Detection of Mutant HTT Protein
Equal amounts of protein lysate collected from each sample were added to a 96-well plate that had been coated with a human HTT specific monoclonal antibody. After washing away any unbound substances, a biotinylated anti-human mutant HTT specific detection antibody was added. Streptavidin-horseradish peroxidase was subsequently added, followed by TMB Substrate Solution, which yielded a blue product that turns yellow when the Stop Solution was added. The intensity of the color measured was in proportion to the amount of mutant HTT bound in the initial step. The mutant HTT values are then interpolated from a standard curve.

Data set [4] has as its system Gmr::HTT97Q fly (mutant HTT, rough eye). Description: HD-Drosophila phenotypic assay (rough eye analysis). Particulars: Gmr-HTT97Q flies, compound 10 μM in media. It counts as in vivo, Drosophila melanogaster. The source says:
D. Alleviation of Neuron Degeneration Phenotypes of Mutant HTT in Drosophila HD Models
The Drosophila melanogaster (fruit fly) HD models carry the coding sequence of human HTT exon1 with 97 CAG repeats to mimic mutant HTT of Huntington's disease (HD). The Gmr::HTT97Q fly, expressing mutant HTT primarily in the neurons of Drosophila compound eyes, has a severe degeneration of photoreceptor neurons and the phenotypic trait ‘rough eye’. All of the fly stocks and genetics crosses are maintained at 25° C. on standard cornmeal yeast agar media.
b. Eye Morphology (Rough Eye) Analysis
Fifteen adult male flies (Gmr-HTT97Q/Gmr-HTT97Q or Gmr/Gmr) are crossed with 15 virgin female flies W1118(+/+) in a vial containing standard yeast agar media with the compound in a concentration of 10 μM. Parent-flies are removed from vials at day 7, followed by a collection of newly hatched flies for ‘rough eye’ analysis. The morphology of compound eyes is captured using a Leica DMR upright microscope equipped with a digital camera (CoolSNAP 5.0, Photometrics). To increase the depth of field, imaging software is used to create montage composite images (Helicon Focus, HeliconSoft). A total of 10 flies are collected for analysis in each individual condition, and the biological experiment is conducted three times. DMSO, the reagent solvent of the compound, is included as a control.

Data set [5] has as its system Lymphoblastoid cells (GM14044). Description: LBC cell viability (Cell Titer-Glo). It counts as cell-based, human. Particulars: at the concentration of IC20, 3-day compound treatment. Here is the method:
Cell viability was determined by Cell Titer-Glo reagent (Promega, PRG9243). After 3-day compound treatment, 15 μl of cell suspension was taken out from plate and incubated with 10 μl of CTG reagent. The values of reaction mixture were detected by Tecan.
Background: Cellular ATP, detected with luciferase, serves as a proxy for viable cell number.

The test system of data set [6] is Huntington's disease patient iPSCs (ND50036). Briefly: iPSC viability at IC20. The class given is cell-based, human. The conditions noted are these: at the concentration of IC20.
A further data set concerns mouse hepatocytes. Description: In vitro metabolic stability in mouse hepatocytes. It counts as in vitro ADME. As to the method: A. In Vitro Metabolic Stability in Hepatocyte
A compound's metabolic stability was assessed using mouse hepatocytes incubated with pre-defined concentration of test articles over several incubation period. The extent of metabolism was calculated from the disappearance of the test compound measured by liquid chromatography mass spectrometry (LC-MS), compared to that of 0-min control. After incubation, quench solutions including internal standards were added and analyzed by LC/MS. The elimination rate constant and intrinsic clearance (CLhepatocyte) values were calculated by linear regression of the compound elimination over the duration of incubation, normalized to the cell number in the given volume of incubation medium.

Structures are written as SMILES. Some results are limits rather than exact numbers.

Take `OCc1ccc(CN[C@H]2CCCc3c2[nH]c2ccc(Br)cc32)cc1` [Compound 3]: the IC50 in [1] was > 1000 nM. In the data set on M2-8 cells, the “M2-8 Cell viability” value is “+ (cell viability is greater than 50% at the concentration of 1000 nM)”. The IC20 in the data set on mutant HTT [2] is > 1000 nM; with wild-type HTT, > 1000 nM; in the data set on mutant HTT [3] (numeric bounds) it was > 100 nM. For the same molecule, the “HD-Drosophila Phenotypic assay (rescue of rough eye phenotype)” value in [4] was “@ (rough eye phenotype of HD flies is rescued by testing compound less than 40%)”.

As for `OCc1ccc(CN[C@@H]2CCCc3c2[nH]c2ccc(Br)cc32)s1` [Compound 36, (R)-(5-(((6-bromo-2,3,4,9-tetrahydro-1H-carbazol-1-yl)amino)methyl)thiophen-2-yl)methanol], the 50% inhibitory concentration (IC50) in data set [1] was ≤ 100 nM. Besides, the “M2-8 Cell viability” value in the data set on M2-8 cells was “+ (cell viability is greater than 50% at the concentration of 1000 nM)”. For the same molecule, the IC20 with mutant HTT [2] was 101 to 300 nM; with wild-type HTT it was > 1000 nM; with mutant HTT [3] (class symbols) it was < 100 nM. Moreover, the “LBC viability at IC20” value in data set [5] is listed as “* (cell viability is greater than 60% at the concentration of IC20)”. The “iPSC viability at IC20” value in [6] is recorded as “+ (cell viability is greater than 75% at the concentration of IC20)”. In addition, the “Mouse HepStability (CLhepatocyte)” value in the data set on mouse hepatocytes is listed as “C (CLhepatocyte >30 μl/min/10^6cells)”.

Consider `OB1OCc2cc(CN[C@@H]3CCCc4c3[nH]c3ccc(Br)cc43)ccc21` [Compound 37], for which the IC50 in [1] is 101 to 300 nM. Also, the “M2-8 Cell viability” value with M2-8 cells is “+ (cell viability is greater than 50% at the concentration of 1000 nM)”. Further, the IC20 in the data set on mutant HTT [2] is 101 to 300 nM; with wild-type HTT, > 1000 nM; with mutant HTT [3] (numeric bounds) it was > 100 nM. For the same molecule, the “LBC viability at IC20” value in data set [5] was “* (cell viability is greater than 60% at the concentration of IC20)”. Besides, the “Mouse HepStability (CLhepatocyte)” value in the data set on mouse hepatocytes is on record as “B (CLhepatocyte 10-30 μl/min/10^6cells)”.

`CC1(C)OB(c2ccc(CN[C@@H]3CCCc4c3[nH]c3ccc(Br)cc43)cc2)OC1(C)C` [Compound 43, (R)-6-bromo-N-(4-(4,4,5,5-tetramethyl-1,3,2-dioxaborolan-2-yl)benzyl)-2,3,4,9-tetrahydro-1H-carbazol-1-amine]: the IC50 in [1] was ≤ 100 nM. In addition, the “M2-8 Cell viability” value in the data set on M2-8 cells is “+ (cell viability is greater than 50% at the concentration of 1000 nM)”. Also, the figures for the IC20 with mutant HTT [2], in the data set with wild-type HTT and with mutant HTT [3] (class symbols) were 101 to 300 nM, > 1000 nM and < 100 nM, respectively. In addition, in data set [5], the “LBC viability at IC20” value is listed as “* (cell viability is greater than 60% at the concentration of IC20)”. Further, the “iPSC viability at IC20” value in data set [6] is recorded as “+ (cell viability is greater than 75% at the concentration of IC20)”.

Turning to `OB(O)c1ccc(CN[C@@H]2CCCc3c2[nH]c2ccc(Br)cc32)cc1` [Compound 38, (R)-(4-(((6-bromo-2,3,4,9-tetrahydro-1H-carbazol-1-yl)amino)methyl)phenyl)boronic acid], the IC50 in data set [1] is ≤ 100 nM. The “M2-8 Cell viability” value in the data set with M2-8 cells is listed as “+ (cell viability is greater than 50% at the concentration of 1000 nM)”. Also, the IC20 in the data set with mutant HTT [2] was 101 to 300 nM; with wild-type HTT it was > 1000 nM; in the data set with mutant HTT [3] (class symbols), < 100 nM. The “LBC viability at IC20” value in data set [5] was “* (cell viability is greater than 60% at the concentration of IC20)”. Further, in data set [6], the “iPSC viability at IC20” value was “+ (cell viability is greater than 75% at the concentration of IC20)”. Besides, the “Mouse HepStability (CLhepatocyte)” value in the data set on mouse hepatocytes is given as “C (CLhepatocyte >30 μl/min/10^6cells)”.

As usually defined, the IC50 is the point on the concentration scale where inhibition reaches its midpoint. High values mean lower potency, low ones higher potency. As usually defined, the IC20 is the concentration at which the effect reaches the 20% level.

The record behind these values is patent US20220062233A1 (The Board of Trustees of the Leland Stanford Junior …, priority 2018, published 2022).
